Read-outs that look alike come from different tables or passages of the source.
Tests used:
[1] = test system: Erysiphe graminis f.sp. tritici; assay: Erysiphe graminis f.sp. tritici (wheat powdery mildew) leaf disk assay; type: in vivo; settings: Blumeria graminis, foliar, 96 h, preventive, four days after inoculation, read-out: control of fungal infection, Erysiphe graminis fsp. tritici
[2] = test system: Puccinia recondita f.sp. tritici; assay: Puccinia recondita f.sp. tritici (wheat brown rust) leaf disk assay; type: in vivo; settings: foliar, 216 h, preventive, nine days after inoculation, read-out: control of fungal infection, Puccinia recondita f.sp. tritici
Pyricularia oryzae = assay: whole plant or invertebrate; type: in vivo; settings: foliar, 96 h
Pythium ultimum = Pythium ultimum (Damping off) growth inhibition in potato dextrose broth; type: cell-based; settings: Globisporangium ultimum, 48 hours, read-out: control of fungal infection, Pythium ultimum
Aedes aegypti = Aedes aegypti (Yellow fever mosquito) larvae test; type: in vivo; settings: 48 h
Phytophthora infestans = assay: whole plant or invertebrate; type: in vivo; settings: foliar, 96 h, read-out: control of fungal infection, Phytophthora infestans
Heliothis virescens = Heliothis virescens (Tobacco budworm) egg test on artificial diet; settings: 96 h, read-out: control of Heliothis virescens
Tetranychus urticae = settings: foliar, 192 h, read-out: control of Tetranychus urticae
Plutella xylostella = Plutella xylostella (Diamond back moth) artificial diet test; settings: 120 h, read-out: control of Plutella xylostella
Myzus persicae = Myzus persicae (Green peach aphid) sunflower leaf disc test; settings: foliar, 144 h, read-out: control of Myzus persicae
Plasmopara viticola = Plasmopara viticola (downy mildew of grapevine) leaf disk assay; type: in vivo; settings: foliar, 168 h, preventive, seven days after inoculation, read-out: control of fungal infection, Plasmopara viticola
[3] = read-out: control of fungal infection, Pyricularia oryzae (at least 60% list)
[4] = read-out: control of fungal infection, Pyricularia oryzae (at least 80% list)

Compound | pest or weed control at 200 ppm [1] [%] | pest or weed control at 200 ppm [2] [%] | pest or weed control at 200 ppm (Pyricularia oryzae; [3]) [%] | inhibition of growth at 200 ppm (Pythium ultimum) [%] | pest or weed control at 2 ppm (Aedes aegypti) [%] | melting point [°C] | pest or weed control at 200 ppm (Phytophthora infestans) [%] | pest or weed control at 200 ppm (Heliothis virescens) [%] | pest or weed control at 200 ppm (Tetranychus urticae) [%] | pest or weed control at 200 ppm (Plutella xylostella) [%] | pest or weed control at 200 ppm (Myzus persicae) [%] | pest or weed control at 200 ppm (Plasmopara viticola) [%] | pest or weed control at 200 ppm (Pyricularia oryzae; [4]) [%]
FC(F)(F)c1ccc(OC2C[C@H]3CC[C@@H](C2)N3c2ncnc3ccsc23)nc1 (stereo partly drawn) [Example 2.77] | ≥ 80 | ≥ 80 | ≥ 60 | ≥ 60 |  |  |  |  |  |  |  |  | 
CCc1ncnc(N2[C@@H]3CC[C@H]2CC(Oc2ccc(C)nc2)C3)c1Cl (stereo partly drawn) [Example 2.151] | ≥ 80 |  |  | ≥ 60 | ≥ 80 |  |  |  |  |  |  |  | 
Cc1ccc(OC2C[C@H]3CC[C@@H](C2)N3c2ccnc3c2c(C)nn3C)cn1 (stereo partly drawn) [Example 2.164] | ≥ 80 |  |  | ≥ 60 |  | 153 |  |  |  |  |  |  | 
CCC(=O)c1ccc(OC2C[C@H]3CC[C@@H](C2)N3c2ncnc(CC)c2Cl)cc1 (stereo partly drawn) [Example 2.166] |  | ≥ 80 |  |  | ≥ 80 |  | ≥ 80 | ≥ 80 | ≥ 80 |  |  |  | 
Fc1cccc2c(N3[C@@H]4CC[C@H]3CC(Oc3cccc(C(F)(F)F)n3)C4)ccnc12 (stereo partly drawn) [Example 2.172] |  |  |  | ≥ 60 |  | 133 |  |  |  |  |  |  | 
FC(F)(F)c1cccc(OC2C[C@H]3CC[C@@H](C2)N3c2ccnc3cc(Cl)ccc23)n1 (stereo partly drawn) [Example 2.174] |  |  |  | ≥ 60 |  | 177 |  |  |  |  |  |  | 
FC(F)(F)c1cccc(OC2C[C@H]3CC[C@@H](C2)N3c2ccnc3c(Cl)cccc23)n1 (stereo partly drawn) [Example 2.175] |  |  | ≥ 60 | ≥ 60 |  | 116 | ≥ 80 |  |  |  |  |  | 
Fc1cccc2c(N3[C@@H]4CC[C@H]3CC(Oc3cc(C(F)(F)F)ccn3)C4)ccnc12 (stereo partly drawn) [Example 2.185] | ≥ 80 |  | ≥ 60 | ≥ 60 |  |  | ≥ 80 |  |  |  |  |  | 
Fc1cccc2c(N3[C@@H]4CC[C@H]3CC(Oc3ccc(C(F)(F)F)cn3)C4)ccnc12 (stereo partly drawn) [Example 2.201] | ≥ 80 | ≥ 80 | ≥ 60 | ≥ 60 | ≥ 80 |  | ≥ 80 | ≥ 80 | ≥ 80 | ≥ 80 |  |  | 
CCc1ncnc(N2C3CCC2CC(=NOCC2CC2)C3)c1Cl [Example 5.3] | ≥ 80 | ≥ 80 |  | ≥ 60 | ≥ 80 |  |  |  |  |  |  |  | 
CCc1ncnc(N2C3CCC2CC(=NOCc2ccncc2)C3)c1Cl [Example 5.6] |  | ≥ 80 |  | ≥ 60 | ≥ 80 |  | ≥ 80 |  | ≥ 80 |  |  |  | 
CCc1ncnc(N2C3CCC2CC(=NOCc2ccc(C)cc2)C3)c1Cl [Example 5.7] | ≥ 80 | ≥ 80 |  |  | ≥ 80 |  | ≥ 80 |  |  | ≥ 80 | ≥ 80 |  | 
CCc1ncnc(N2C3CCC2CC(=NOCc2ccc(OC)cc2)C3)c1Cl [Example 5.16] | ≥ 80 | ≥ 80 |  |  | ≥ 80 |  |  | ≥ 80 | ≥ 80 | ≥ 80 |  | ≥ 80 | 
CCc1ncnc(N2C3CCC2CC(=NOCc2ccccn2)C3)c1Cl [Example 5.41] | ≥ 80 | ≥ 80 |  | ≥ 60 | ≥ 80 |  | ≥ 80 | ≥ 80 |  |  |  |  | 
CCc1ncnc(N2C3CCC2CC(=NOCc2ccc(F)cc2Cl)C3)c1Cl [Example 5.76] |  | ≥ 80 | ≥ 60 |  | ≥ 80 |  |  |  |  | ≥ 80 | ≥ 80 |  | 
CCc1ncnc(N2C3CCC2CC(=NOCc2c(F)ccc(F)c2F)C3)c1Cl [Example 5.82] | ≥ 80 | ≥ 80 | ≥ 60 |  | ≥ 80 |  | ≥ 80 |  |  | ≥ 80 | ≥ 80 |  | 

Compound | pest or weed control at 200 ppm [1] [%] | pest or weed control at 200 ppm [2] [%] | pest or weed control at 200 ppm (Pyricularia oryzae; [3]) [%] | inhibition of growth at 200 ppm (Pythium ultimum) [%] | pest or weed control at 2 ppm (Aedes aegypti) [%] | melting point [°C] | pest or weed control at 200 ppm (Phytophthora infestans) [%] | pest or weed control at 200 ppm (Heliothis virescens) [%] | pest or weed control at 200 ppm (Tetranychus urticae) [%] | pest or weed control at 200 ppm (Plutella xylostella) [%] | pest or weed control at 200 ppm (Myzus persicae) [%] | pest or weed control at 200 ppm (Plasmopara viticola) [%] | pest or weed control at 200 ppm (Pyricularia oryzae; [4]) [%]
CCc1ncnc(N2C3CCC2CC(=NOCc2cc(OC)nc(N)n2)C3)c1Cl [Example 5.91] | ≥ 80 | ≥ 80 |  | ≥ 60 |  |  | ≥ 80 |  |  |  |  |  | 
CCc1ncnc(N2C3CCC2CC(=NOCc2noc(C)n2)C3)c1Cl [Example 5.92] | ≥ 80 | ≥ 80 |  |  | ≥ 80 |  |  | ≥ 80 | ≥ 80 | ≥ 80 |  |  | 
CCc1ncnc(N2C3CCC2CC(=NOCc2csc(C)n2)C3)c1Cl [Example 5.98] | ≥ 80 | ≥ 80 |  | ≥ 60 | ≥ 80 |  |  |  |  |  |  |  | 
CCc1ncnc(N2C3CCC2CC(=NOCc2ccc(S(C)(=O)=O)cc2)C3)c1Cl [Example 5.106] | ≥ 80 | ≥ 80 |  | ≥ 60 |  |  | ≥ 80 |  | ≥ 80 |  |  |  | 
CCc1ncnc(N2C3CCC2CC(=NOCc2cc4c(cc2Cl)OCO4)C3)c1Cl [Example 5.114] | ≥ 80 | ≥ 80 |  |  | ≥ 80 |  |  |  |  |  | ≥ 80 | ≥ 80 | 
c1ccc(CON=C2CC3CCC(C2)N3c2ncnc3sccc23)cc1 [Example 5.138] | ≥ 80 | ≥ 80 | ≥ 60 | ≥ 60 | ≥ 80 |  | ≥ 80 | ≥ 80 | ≥ 80 | ≥ 80 |  | ≥ 80 | 
Cc1ccc(CON=C2CC3CCC(C2)N3c2ncnc3sccc23)cc1 [Example 5.145] | ≥ 80 | ≥ 80 | ≥ 60 |  | ≥ 80 |  | ≥ 80 | ≥ 80 | ≥ 80 | ≥ 80 |  | ≥ 80 | 
c1ccc(CON=C2CC3CCC(C2)N3c2ncnc3sccc23)nc1 [Example 5.149] | ≥ 80 | ≥ 80 |  | ≥ 60 | ≥ 80 |  |  |  |  |  |  |  | ≥ 80
COc1ccc(CON=C2CC3CCC(C2)N3c2ncnc3sccc23)cc1 [Example 5.165] | ≥ 80 |  |  | ≥ 60 |  |  | ≥ 80 |  |  |  |  |  | 
Fc1cc(F)cc(CON=C2CC3CCC(C2)N3c2ncnc3sccc23)c1 [Example 5.205] | ≥ 80 | ≥ 80 |  | ≥ 60 |  |  | ≥ 80 |  |  |  |  |  | ≥ 80
Fc1cccc(CON=C2CC3CCC(C2)N3c2ncnc3sccc23)c1F [Example 5.219] | ≥ 80 | ≥ 80 | ≥ 60 | ≥ 60 | ≥ 80 |  | ≥ 80 |  |  | ≥ 80 |  |  | ≥ 80
CS(=O)(=O)c1ccc(CON=C2CC3CCC(C2)N3c2ncnc3sccc23)cc1 [Example 5.248] | ≥ 80 | ≥ 80 |  | ≥ 60 |  |  | ≥ 80 |  | ≥ 80 |  |  |  | 
COc1ccc(CC2CC3CCC(C2)N3c2ncnc3sccc23)cc1 (stereo not drawn) [Example 7.11] |  | ≥ 80 | ≥ 60 |  | ≥ 80 |  |  | ≥ 80 | ≥ 80 |  |  | ≥ 80 | 
Cc1csc(CC2CC3CCC(C2)N3c2ncnc3sccc23)n1 (stereo not drawn) [Example 7.16] |  | ≥ 80 |  | ≥ 60 |  | 132 |  |  |  |  |  |  | 
CCc1ncnc(N2C3CCC2CC(Cc2ccc(OC)cc2)C3)c1Cl (stereo not drawn) [Example 7.32] |  | ≥ 80 |  |  | ≥ 80 |  |  | ≥ 80 | ≥ 80 | ≥ 80 |  |  | 
